Publication PMC4666032, “KPT-330, a potent and selective exportin-1 (XPO-1) inhibitor, shows antitumor effects modulating the expression of cyclin D1 and survivin in prostate cancer models” (BMC Cancer, 2015)

Tests used:
PCa cell lines = experiment: Growth inhibition across the PCa cell panel; type: cell-based; conditions: Homo sapiens; 72 hours, range across the cell panel; read-out: IC50 values, range over PCa cell lines
From the text: Four commercial (LnCaP, 22rv1, DU145 and PC3) and twelve non-commercial (LAPC-4 [44], CWR22, PCb2 [45], PC3Lymphnode, PC3M, PC3M-pro4 [46] and PC3M-Ln4 [47], LnCaP-104S [47], LnCaP104R1 [47], LnCaP-C81 [47], C4-2B [48], VCAP [49] and DuCaP [[49]) cell lines were selected for the in vitro experimental studies for their biological characteristics: LAPC-4 (Androgen receptor [AR] positive, androgen dependent with low Akt/mTOR activities, p53 wt); LnCaP (AR positive, androgen dependent with high Akt/mTOR activities, p53 wt); LnCaP-C81 and LnCaP-C4-2B (AR positive, androgen independent with high Akt/mTOR activities, p53 wt); 22rv1 (AR positive, androgen independent with low Akt/mTOR activities, p53 wt); PC3 (AR negative, with high Akt/mTOR activities and no p53 function (p53 del) and DU145 (AR negative, with low Akt/mTOR activities and mutant p53). PC3 and DU145 have been also transfected with AR to obtain PC3AR [50] and DU-AR [51]. Benign prostatic hyperplasia line (BPH1), and Prostatic epithelial lines (EPN and RWPE-1) were used as non-neoplastic controls. Cells were routinely cultured in appropriate medium supplemented with 10 % fetal bovine serum (FBS), 1 % pen-strep and 1 % L-glutamine (Invitrogen Corporation, Carlsbad, CA). To minimize the risk to work with misidentified and/or contaminated cell lines, DNA profiling was periodically carried out in-house to authenticate cell cultures. DNA was isolated from cell lines using a standard DNA isolation kit. […]
Cells were seeded at a density of 2 x 10^4 cells/mL in 24-well plates. […] Cells were trypsinized and resuspended in 1.0 ml of saline, then counted using a NucleoCounter™ NC-100 (automated cell counter systems, Chemotec, Gydevang, Denmark). The effect on cell proliferation was measured by taking the mean cell number with respect to controls over time for the different treatment groups.
Viable cells were counted by using the NucleoCounter™ NC-100 (automated cell counter systems, Chemotec, Cydevang, DK). Apoptosis was evaluated by using Tali® Apoptosis Kit - Annexin V Alexa Fluor® 488 & Propidium Iodide-based, (Life Technologies Italia, Monza, Italy). Stained cells were then measured on a Tali® Image-Based Cytometer. […]
Six SINE analogs KPT-127, KPT-185, KPT-205, KPT-227, KPT251 and KPT-330 sharing a trifluoromethyl phenyl triazole scaffold, were investigated for their growth inhibitory and apoptotic potential in our PCa cell panel. Therefore, the effects of these XPO1 inhibitors were evaluated on the growth of PCa cell lines performing dose- and time-dependent studies. To examine the dose-dependent effects of these compounds, we treated cells with varying doses of the compounds (0, 1, 10, 50, 100, 500 and 1000 nM) and assessed viability at 72 hours after treatment. The IC50 for each compound was then calculated. […]

PC3, DU145 and 22rv1 = experiment: Molecular changes by immunoblots, ELISA and immunocytochemistry; type: cell-based, human
Description: (§1) Cytoplasmic and nuclear protein extracts were obtained by using the Nuclear/Cytosol Fractionation Kit from Biovision Inc. (Milpitas, CA, USA). Cell extracts and conditioned media from treated and untreated cells were electrophoresed under reducing conditions and transferred to nitrocellulose filter (Schleicher and Schuell GmbH, Dassel, Germany). Non specific binding sites were blocked for 1 h in 5 % non-fat dried milk in a Tris buffer containing 20 mM Tris and 137 mM NaCl (pH 7.6). Blots were incubated with 1 μg/ml of primary antibody diluted in blocking solution for 1 h at room temperature, washed and then incubated for 1 h in secondary antibody diluted 1:3000 in blocking solution. Following an additional wash, reactive bands were visualized by a chemiluminescent detection kit (Supersignal, Perbio Science, Tattenhall, UK) using Bio-Rad gel Doc™ (Bio-Rad Laboratories S.r.l., Milan, Italy).
(§2) The molecular pathways that are induced by XPO-1 inhibition were evaluated by immunoblots, ELISA and immunocytochemical analyses performed in PC3, DU145 and 22rv1 as models of CRPC using 100 nM KPT-330 as reference compound. The effects were monitored in early and chronic treatments. […] In Fig. 3a, we show representative western blots for nuclear and cytoplasm expression of cyclin D1 and XPO-1 in PC3 cell extracts after 2–12 hr of treatment with KPT-330. […] In addition, prolonged treatment with KPT-330 determined a reduction of cyclin D1 protein expression in DU145 cell lines (Fig. 3c). Increased nuclear expression of FOXO3a is visible also by IHC (Fig. 3e) in 22rv1 cells treated with KPT-330. […] Therefore, the inhibition of XPO-1-mediated export machinery may enhance AR signaling (manuscript in preparation). […] Although proteasome inhibitors are considered for treatment of solid tumors, these compounds could reduce the effectiveness of selinexor, requiring further investigation.

PC3 cells = experiment: Western blot of nuclear proteins; type: cell-based, human; conditions: 100 nM, 2-12 hrs
Description: as §1, §2

22rv1 cells = experiment: Western blot of nuclear proteins; type: cell-based, human; conditions: 100 nM
Description: as §1, §2

| SMILES | IC50 (PCa cell lines) [nM] | cell cycle distribution (PC3, DU145 and 22rv1; 100 nM, 24, 48 and 72 hrs) | XPO-1 localization, early treatment (PC3, DU145 and 22rv1; 100 nM, early treatment) | cyclin D1 cytosolic levels (PC3, DU145 and 22rv1; 100 nM, early treatment) | cyclin D1 nuclear expression (PC3, DU145 and 22rv1; 100 nM, early treatment) | XPO-1 protein levels, prolonged treatment (PC3, DU145 and 22rv1; 100 nM, prolonged treatments) | nuclear export of survivin (PC3, DU145 and 22rv1; PCa cell lines, Western blots and ELISAs, 100 nM) | nuclear FOXO, p21, p27, cyclin B1 (PC3 cells) | total expression of AR, prolonged exposure (22rv1 cells; 22rv1 cells, prolonged exposure) | nuclear expression of p53 and MDM2 (22rv1 cells; AR+/p53wt 22rv1 cells) | nuclear expression of AR (22rv1 cells; AR+/p53wt 22rv1 cells, early) |
| --- | --- | --- | --- | --- | --- | --- | --- | --- | --- | --- | --- |
| FC(F)(F)c1cc(-c2ncn(/C=C\c3nnco3)n2)cc(C(F)(F)F)c1 [KPT-251] | 150 to 300 | – | – | – | – | – | – | – | – | – | – |
| O=C(/C=C\n1cnc(-c2cc(C(F)(F)F)cc(C(F)(F)F)c2)n1)NNc1cnccn1 [KPT-330] | 43 to 201 | accumulation of cells in the G1 cell cycle phase with loss of cells in the S and G2/M phase | early XPO-1 nuclear accumulation | strongly reduced | increased | dramatically reduced | reduced | nuclear accumulation | significantly reduced | increased | increased |
